Measurements as given in PubChem BioAssay (NCI).
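All cell lines were grown in 96-well plates and treated with compound for 48 hours. Abbreviation: GI50, concentration required for 50% inhibition of growth. Definition used: TGI = concentration required for complete inhibition of growth.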

Tests used:
Test in all cases: NCI-60 cell line screen, 48 h
786-0 renal = test system: 786-0 renal
A549 NSCLC = test system: A549 NSCLC
ACHN renal = test system: ACHN renal
CAKI-1 renal = test system: CAKI-1 renal
COLO 205 colon = test system: COLO 205 colon
DU-145 prostate = test system: DU-145 prostate
EKVX NSCLC = test system: EKVX NSCLC
HCT-116 colon = test system: HCT-116 colon
HCT-15 colon = test system: HCT-15 colon
HL-60(TB) leukemia = test system: HL-60(TB) leukemia
HOP-62 NSCLC = test system: HOP-62 NSCLC
HS 578T breast = test system: HS 578T breast
HT29 colon = test system: HT29 colon
IGROV1 ovarian = test system: IGROV1 ovarian
K-562 leukemia = test system: K-562 leukemia
KM12 colon = test system: KM12 colon
LOX IMVI melanoma = test system: LOX IMVI melanoma
M14 melanoma = test system: M14 melanoma
MALME-3M melanoma = test system: MALME-3M melanoma
MCF7 breast = test system: MCF7 breast
MDA-MB-231 breast = test system: MDA-MB-231 breast
MDA-MB-435 = test system: MDA-MB-435
MOLT-4 leukemia = test system: MOLT-4 leukemia
NCI-H226 lung = test system: NCI-H226 lung
NCI-H23 lung = test system: NCI-H23 lung
NCI-H460 lung = test system: NCI-H460 lung
NCI-H522 lung = test system: NCI-H522 lung
NCI/ADR-RES ovarian = test system: NCI/ADR-RES ovarian
OVCAR-3 ovarian = test system: OVCAR-3 ovarian
OVCAR-4 ovarian = test system: OVCAR-4 ovarian
OVCAR-5 ovarian = test system: OVCAR-5 ovarian
OVCAR-8 ovarian = test system: OVCAR-8 ovarian
PC-3 prostate = test system: PC-3 prostate
RPMI-8226 leukemia = test system: RPMI-8226 leukemia
RXF 393 renal = test system: RXF 393 renal
SF-268 CNS = test system: SF-268 CNS
SF-295 CNS = test system: SF-295 CNS
SF-539 CNS = test system: SF-539 CNS
SK-MEL-2 melanoma = test system: SK-MEL-2 melanoma
SK-MEL-28 melanoma = test system: SK-MEL-28 melanoma
SK-MEL-5 melanoma = test system: SK-MEL-5 melanoma
SK-OV-3 ovarian = test system: SK-OV-3 ovarian
SN12C renal = test system: SN12C renal
SNB-19 CNS = test system: SNB-19 CNS
SNB-75 CNS = test system: SNB-75 CNS
SR leukemia = test system: SR leukemia
SW-620 colon = test system: SW-620 colon
T-47D breast = test system: T-47D breast
TK-10 renal = test system: TK-10 renal
U251 CNS = test system: U251 CNS
UACC-257 melanoma = test system: UACC-257 melanoma
UACC-62 melanoma = test system: UACC-62 melanoma
UO-31 renal = test system: UO-31 renal
A498 renal = test system: A498 renal
HCC-2998 colon = test system: HCC-2998 colon
HOP-92 NSCLC = test system: HOP-92 NSCLC

In the case of C/C(=C\COP(=O)(O)OP(=O)(O)O)CCCOCc1ccccc1, the TGI (786-0 renal) is reported as > 100 µM, the TGI (A549 NSCLC) is reported as > 100 µM and the TGI (ACHN renal) is reported as > 100 µM. For the same molecule, the TGI (CAKI-1 renal) was > 100 µM, the TGI (COLO 205 colon) was > 100 µM and the TGI (DU-145 prostate) was > 100 µM. The TGI (EKVX NSCLC) was > 100 µM, the TGI (HCT-116 colon) was > 100 µM and the TGI (HCT-15 colon) was > 100 µM. For the same molecule, the TGI (HL-60(TB) leukemia) was > 100 µM, the TGI (HOP-62 NSCLC) was > 100 µM and the TGI (HS 578T breast) was > 100 µM. The TGI (HT29 colon) was > 100 µM, the TGI (IGROV1 ovarian) was > 100 µM and the TGI (K-562 leukemia) was > 100 µM. For the same molecule, the TGI (KM12 colon) was > 100 µM, the TGI (LOX IMVI melanoma) was > 100 µM and the TGI (M14 melanoma) was > 100 µM. For the same molecule, the TGI (MALME-3M melanoma) was > 100 µM, the TGI (MCF7 breast) was > 100 µM and the TGI (MDA-MB-231 breast) was > 100 µM. The TGI (MDA-MB-435) was > 100 µM, the TGI (MOLT-4 leukemia) was > 100 µM and the TGI (NCI-H226 lung) was > 100 µM. For the same molecule, the TGI (NCI-H23 lung) was > 100 µM, the TGI (NCI-H460 lung) was > 100 µM and the TGI (NCI-H522 lung) was > 100 µM. For the same molecule, the TGI (NCI/ADR-RES ovarian) was > 100 µM, the TGI (OVCAR-3 ovarian) was > 100 µM and the TGI (OVCAR-4 ovarian) was > 100 µM. The TGI (OVCAR-5 ovarian) was > 100 µM, the TGI (OVCAR-8 ovarian) was > 100 µM and the TGI (PC-3 prostate) was > 100 µM. The TGI (RPMI-8226 leukemia) was > 100 µM, the TGI (RXF 393 renal) was > 100 µM and the TGI (SF-268 CNS) was > 100 µM. The TGI (SF-295 CNS) was > 100 µM, the TGI (SF-539 CNS) was > 100 µM and the TGI (SK-MEL-2 melanoma) was > 100 µM. The TGI (SK-MEL-28 melanoma) was > 100 µM, the TGI (SK-MEL-5 melanoma) was > 100 µM and the TGI (SK-OV-3 ovarian) was > 100 µM. For the same molecule, the TGI (SN12C renal) was > 100 µM, the TGI (SNB-19 CNS) was > 100 µM and the TGI (SNB-75 CNS) was > 100 µM. The TGI (SR leukemia) was > 100 µM, the TGI (SW-620 colon) was > 100 µM and the TGI (T-47D breast) was > 100 µM. For the same molecule, the TGI (TK-10 renal) was > 100 µM, the TGI (U251 CNS) was > 100 µM and the TGI (UACC-257 melanoma) was > 100 µM. The TGI (UACC-62 melanoma) was > 100 µM and the TGI (UO-31 renal) was > 100 µM.
Molecule O=C(Nc1ccc(Cl)cc1)Nc1ccc(Cl)c(C(F)(F)F)c1 has a GI50 (786-0 renal) of 2.75 µM, a TGI (786-0 renal) of 10.7 µM and a GI50 (A498 renal) of 2.38 µM. It also gave a TGI (A498 renal) of 6.26 µM, a GI50 (A549 NSCLC) of 3.39 µM and a TGI (A549 NSCLC) of 15.8 µM. For the same molecule, the GI50 (ACHN renal) was 3.04 µM, the TGI (ACHN renal) was 12.1 µM and the GI50 (CAKI-1 renal) was 2.27 µM. For the same molecule, the TGI (CAKI-1 renal) was 8.84 µM, the GI50 (COLO 205 colon) was 1.63 µM and the TGI (COLO 205 colon) was 3.01 µM. The GI50 (DU-145 prostate) was 3.66 µM, the TGI (DU-145 prostate) was 12.4 µM and the GI50 (EKVX NSCLC) was 2.48 µM. For the same molecule, the TGI (EKVX NSCLC) was 11 µM, the GI50 (HCC-2998 colon) was 3.12 µM and the TGI (HCC-2998 colon) was 8.81 µM. It also gave a GI50 (HCT-116 colon) of 1.95 µM, a TGI (HCT-116 colon) of 5.33 µM and a GI50 (HCT-15 colon) of 2.65 µM. For the same molecule, the TGI (HCT-15 colon) was 11.6 µM, the GI50 (HL-60(TB) leukemia) was 1.74 µM and the TGI (HL-60(TB) leukemia) was 3.91 µM. It also gave a GI50 (HOP-62 NSCLC) of 3 µM, a TGI (HOP-62 NSCLC) of 11.3 µM and a GI50 (HOP-92 NSCLC) of 1.55 µM. It also gave a TGI (HOP-92 NSCLC) of 5.03 µM, a GI50 (HS 578T breast) of 2.68 µM and a TGI (HS 578T breast) of 8.31 µM. For the same molecule, the GI50 (HT29 colon) was 2.86 µM, the TGI (HT29 colon) was 10.7 µM and the GI50 (IGROV1 ovarian) was 4.01 µM. The TGI (IGROV1 ovarian) was 16.2 µM, the GI50 (K-562 leukemia) was 1.06 µM and the TGI (K-562 leukemia) was 2.95 µM. For the same molecule, the GI50 (KM12 colon) was 2.21 µM, the TGI (KM12 colon) was 6.56 µM and the GI50 (LOX IMVI melanoma) was 3.31 µM. It also gave a TGI (LOX IMVI melanoma) of 11.6 µM, a GI50 (M14 melanoma) of 3.59 µM and a TGI (M14 melanoma) of 12.3 µM. It also gave a GI50 (MCF7 breast) of 2.16 µM, a TGI (MCF7 breast) of 7.85 µM and a GI50 (MDA-MB-231 breast) of 1.75 µM. For the same molecule, the TGI (MDA-MB-231 breast) was 3.91 µM, the GI50 (MDA-MB-435) was 2.45 µM and the TGI (MDA-MB-435) was 8.13 µM. It also gave a GI50 (MOLT-4 leukemia) of 1.72 µM, a TGI (MOLT-4 leukemia) of 4.4 µM and a GI50 (NCI-H23 lung) of 2.21 µM. The TGI (NCI-H23 lung) was 11 µM, the GI50 (NCI-H460 lung) was 1.7 µM and the TGI (NCI-H460 lung) was 6.44 µM. It also gave a GI50 (NCI-H522 lung) of 4.05 µM, a TGI (NCI-H522 lung) of 29.1 µM and a GI50 (NCI/ADR-RES ovarian) of 3.07 µM. The TGI (NCI/ADR-RES ovarian) was 10.5 µM, the GI50 (OVCAR-3 ovarian) was 1.86 µM and the TGI (OVCAR-3 ovarian) was 7.76 µM. The GI50 (OVCAR-4 ovarian) was 2.33 µM, the TGI (OVCAR-4 ovarian) was 11.4 µM and the GI50 (OVCAR-5 ovarian) was 4.52 µM. For the same molecule, the TGI (OVCAR-5 ovarian) was 14.9 µM, the GI50 (OVCAR-8 ovarian) was 4.04 µM and the TGI (OVCAR-8 ovarian) was 18.8 µM. The GI50 (PC-3 prostate) was 2.35 µM, the TGI (PC-3 prostate) was 10.8 µM and the GI50 (SF-268 CNS) was 3.54 µM. For the same molecule, the TGI (SF-268 CNS) was 12.2 µM, the GI50 (SF-295 CNS) was 1.97 µM and the TGI (SF-295 CNS) was 8.87 µM. For the same molecule, the GI50 (SF-539 CNS) was 2.61 µM, the TGI (SF-539 CNS) was 10.1 µM and the GI50 (SK-MEL-2 melanoma) was 3.25 µM. The TGI (SK-MEL-2 melanoma) was 10 µM, the GI50 (SK-MEL-28 melanoma) was 3.51 µM and the TGI (SK-MEL-28 melanoma) was 11.9 µM. For the same molecule, the GI50 (SK-MEL-5 melanoma) was 1.55 µM, the TGI (SK-MEL-5 melanoma) was 2.99 µM and the GI50 (SK-OV-3 ovarian) was 2.37 µM. The TGI (SK-OV-3 ovarian) was 6.8 µM, the GI50 (SN12C renal) was 2.29 µM and the TGI (SN12C renal) was 10.5 µM. For the same molecule, the GI50 (SNB-19 CNS) was 3.21 µM, the TGI (SNB-19 CNS) was 12.6 µM and the GI50 (SNB-75 CNS) was 1.97 µM. It also gave a TGI (SNB-75 CNS) of 7.73 µM, a GI50 (SW-620 colon) of 2.93 µM and a TGI (SW-620 colon) of 9.66 µM. The GI50 (T-47D breast) was 1.22 µM, the TGI (T-47D breast) was 5.49 µM and the GI50 (TK-10 renal) was 4.25 µM. It also gave a TGI (TK-10 renal) of 19.2 µM, a GI50 (U251 CNS) of 2.8 µM and a TGI (U251 CNS) of 11.4 µM. It also gave a GI50 (UACC-257 melanoma) of 3.44 µM, a TGI (UACC-257 melanoma) of 11.8 µM and a GI50 (UACC-62 melanoma) of 2.71 µM. The TGI (UACC-62 melanoma) was 14.7 µM, the GI50 (UO-31 renal) was 2.54 µM and the TGI (UO-31 renal) was 10.2 µM.
